Measurements: PMC6154694, “Absorption, Metabolic Stability, and Pharmacokinetics of Ginger Phytochemicals” (Molecules : A Journal of Synthetic Chemistry and Natural …, 2017)

Tests used:
[1] = Liver microsomal stability, mouse; type: in vitro ADME, CD1 mouse; conditions: protein 0.5 mg/mL
Experimental: Pooled liver microsomes from CD1 mouse, IGS Sprague-Dawley rat, Beagle dog, and mixed gender human were used for assays. Incubations (1 mL) consisted of liver microsomes (0.5 mg/mL), NADPH (1 mM) and 100 mM sodium phosphate buffer (pH 7.4). Following pre-incubation (10 min, 37 °C), reactions were initiated by spiking ACN/DMSO (80:20) stock solutions of GE phenolics (5 μL, 10 μM). Samples (100 μL) were withdrawn at 0, 5, 10, 15, 20 and 30 min and quenched with 200 μL acetonitrile containing internal standard. Concomitant NADPH-free control incubations were prepared similarly.

[2] = Mouse pharmacokinetic study of oral GE with and without ketoconazole, plasma with and without β-glucuronidase treatment; type: in vivo, male mice (C57BL6J); conditions: for Concentration Ratio (Total/Free) of GE Phenolics: GE administered group; for Concentration Ratio (Total/Free) of GE Phenolics / concentration at 0 h / concentration at 0.087 h / concentration at 0.167 h / concentration at 0.25 h / concentration at 0.5 h / concentration at 1 h / concentration at 2 h / concentration at 3 h / concentration at 4 h / concentration at 6 h / concentration at 8 h / concentration at 12 h: mouse plasma; for AUC(0-t) / Cmax / Tmax / concentration at 0 h / concentration at 0.087 h / concentration at 0.167 h / concentration at 0.25 h / concentration at 0.5 h / concentration at 1 h / concentration at 2 h / concentration at 3 h / concentration at 4 h / concentration at 6 h / concentration at 8 h / concentration at 12 h: male, C57BL6J; for AUC(0-t) / Cmax / Tmax: mouse, plasma, po, 250 mg/kg
Experimental: A solution formulation of GE was prepared by using 5% ethanol, 5% Tween 80, 40% polyethylene glycol, and 50% corn oil. The dose volume was 10 mL/kg and the dose administered was 250 mg/kg GE.
Pharmacokinetic study in male mice (C57BL6J, Harlan Laboratories, Indianapolis, IN, USA) was run with 36 animals in each group at a GE dose of 250 mg/kg with a dose volume of 10 mL/kg. One group was given GE alone and in the second group GE was co-administered with KTZ (50 mg/kg). A terminal sampling design was used to collect blood samples at 0 (pre-dose), 0.08, 0.16, 0.25, 0.5, 1, 2, 3, 4, 6, 8, and 12 h. At each time, 1 mL of blood was collected in ethylenediaminetetraacetic acid di-potassium salt (K2EDTA) tubes (BD Biosciences, Franklin Lakes, NJ, USA). Plasma was separated by centrifugation of samples at 4000 rpm for 10 min and stored below −60 °C till bioanalysis. All experiments were performed with approval from the Institutional Animal Care and Use Committee (IACUC, approval code: A14031). All animals were acclimatized for five days before dosing in the experimental area. Food and water was provided ad libitum throughout the study period. Animals were marked and housed (three per cage, n = 36 per group) in polypropylene cages and maintained in controlled environmental conditions with 12 h light and dark cycles. The temperature and humidity of the room was maintained between 22 ± 3 °C and 30% to 50%, respectively, and approximately 10–12 fresh air change cycles per hour.
To confirm the presence of GE glucuronide conjugates, plasma (100 μL) was treated with βgd (20 μL, 500 units) and incubated at 37 °C for 1 h. Each sample was analyzed twice with and without β-gd treatment. Samples without gde treatment were diluted with 20 μL of buffer. Total (conjugated + free) and free ginger phenolics data were reported following bioanalysis.
All in vitro and in vivo samples were processed by protein precipitation method. An aliquot (100 μL) of the sample was spiked with 200 μL of acetonitrile containing dihydrocapsaicin as internal standard (IS) and vortex mixed for 3 min. The tubes were centrifuged at 12,000 rpm for 10 min and an aliquot of supernatant was transferred into autosampler vials for analysis. The stock solutions of 6G, 8G, 10G, and 6S were prepared in ACN/water (70:30) at 1 mg/mL. A calibration curve (CC) range of 2–2000 ng/mL was employed for the quantification of analytes and IS concentration was 150 ng/mL for each analysis. The CC consisted of blank, blank with IS and seven non-zero calibration standards. The calibration standards were within ±15% of the nominal concentration and lower limit of quantification was within ±20% of nominal. All samples were analyzed using liquid chromatography tandem mass spectrometry (LC-MS/MS) method (Agilent 6410 series, Santa Clara, CA, USA). A positive ionization mode with multiple reaction monitoring (MRM, m/z Q1/Q3) of 6G (m/z 277.1/177.1, retention time (RT) 2.0 min), 8G (m/z 305.1/177.1, RT 4.0 min), 10G (m/z 333.1/177.1, RT 7.7 min), 6S (m/z 277.1/137.1, RT 5.1 min), and IS (m/z 308.2/137.1, RT 3.4 min) was employed. The ion spray voltage was set at 3500 V, ionization temperature was set to 300 °C and drying gas flow rate was 10 L/min. Data acquisition and quantitation were performed using Mass Hunter software (Agilent Technologies, Wilmington, DE, USA). Separation was achieved using HP1100 series LC (Agilent Technologies) with an Agilent Zorbax reversed-phase (SB-C18, 2.1 × 50 mm, 5.0 μm) column. A gradient method was employed to separate the individual GE phenolics using mobile phase A (0.1% formic acid in water) and mobile phase B (Acetonitrile). The gradient elution method with 50% B at 0 min, 90% B at 5 min, held for 2.1 min, back to 50% B at 7.1 min with a flow rate of 0.2 mL/min. An injection volume of 2 μL was used for analysis. […]

[3] = 250 mg/kg GE + 50 mg/kg KTZ oral, +KTZ −βgd

remaining at 0.5 h, 10 µM ([1]; CD1, pooled liver microsomes, pH 7.4, substrate 10 µM, n = 2, read-out: % Remaining at 30 min): 10%
Intrinsic Clearance ([1]; mouse liver microsomes, substrate 10 µM, 45 mg protein/g liver): 8.0 mL/min/g Liver
AUClast Ratio ([2]; +KTZ +βgd, reference GE group co-administered with KTZ untreated with βgd): 11
AUClast Ratio ([2]; +KTZ +βgd, reference GE group untreated with βgd): 32
AUClast Ratio ([2]; +KTZ −βgd, reference GE group untreated with βgd): 3
Concentration Ratio (Total/Free) of GE Phenolics ([2]; 0 h): 0
Concentration Ratio (Total/Free) of GE Phenolics ([2]; 0.087 h): 5
Concentration Ratio (Total/Free) of GE Phenolics ([2]; 0.167 h): 11
Concentration Ratio (Total/Free) of GE Phenolics ([2]; 0.25 h): 24
Concentration Ratio (Total/Free) of GE Phenolics ([2]; 0.5 h): 13
Concentration Ratio (Total/Free) of GE Phenolics ([2]; 1 h): 8
Concentration Ratio (Total/Free) of GE Phenolics ([2]; 2 h): 19
Concentration Ratio (Total/Free) of GE Phenolics ([2]; 3 h): 9
Concentration Ratio (Total/Free) of GE Phenolics ([2]; 4 h): 9
Concentration Ratio (Total/Free) of GE Phenolics ([2]; 6 h): 15
Concentration Ratio (Total/Free) of GE Phenolics ([2]; 8 h): 0
Concentration Ratio (Total/Free) of GE Phenolics ([2]; 12 h): 0
AUC(0-t) ([2]; 250 mg/kg GE oral, −βgd): 61.8 ng·h/mL
Cmax ([2]; 250 mg/kg GE oral, −βgd): 56 ng/mL
Tmax ([2]; 250 mg/kg GE oral, −βgd): 30 min
AUC(0-t) [2, 3]: 174 ng·h/mL
Cmax [2, 3]: 79 ng/mL
Tmax [2, 3]: 30 min
concentration at 0 h ([2]; 250 mg/kg GE oral, 0 h, −βgd): 0 ng/mL
concentration at 0.087 h ([2]; 250 mg/kg GE oral, 0.087 h, −βgd): 43.1 ± 35.3 ng/mL
concentration at 0.167 h ([2]; 250 mg/kg GE oral, 0.167 h, −βgd): 20.7 ± 6.15 ng/mL
concentration at 0.25 h ([2]; 250 mg/kg GE oral, 0.25 h, −βgd): 25.9 ± 4.43 ng/mL
concentration at 0.5 h ([2]; 250 mg/kg GE oral, 0.5 h, −βgd): 56 ± 31.6 ng/mL
concentration at 1 h ([2]; 250 mg/kg GE oral, 1 h, −βgd): 2.21 ± 0.62 ng/mL
concentration at 2 h ([2]; 250 mg/kg GE oral, 2 h, −βgd): 4.08 ± 1.61 ng/mL
concentration at 3 h ([2]; 250 mg/kg GE oral, 3 h, −βgd): 5.25 ± 1.06 ng/mL
concentration at 4 h ([2]; 250 mg/kg GE oral, 4 h, −βgd): 3.06 ± 1.19 ng/mL
concentration at 6 h ([2]; 250 mg/kg GE oral, 6 h, −βgd): 2.43 ± 1.16 ng/mL
concentration at 8 h ([2]; 250 mg/kg GE oral, 8 h, −βgd): 5.04 ± 5.89 ng/mL
concentration at 12 h ([2]; 250 mg/kg GE oral, 12 h, −βgd): 0.62 ± 0.72 ng/mL
concentration at 0 h ([2]; 250 mg/kg GE with 50 mg/kg ketoconazole oral, 0 h, −βgd): 0 ng/mL
concentration at 0.087 h ([2]; 250 mg/kg GE with 50 mg/kg ketoconazole oral, 0.087 h, −βgd): 0 ng/mL
concentration at 0.167 h ([2]; 250 mg/kg GE with 50 mg/kg ketoconazole oral, 0.167 h, −βgd): 5.66 ± 5.12 ng/mL
concentration at 0.25 h ([2]; 250 mg/kg GE with 50 mg/kg ketoconazole oral, 0.25 h, −βgd): 20.5 ± 21.6 ng/mL
concentration at 0.5 h ([2]; 250 mg/kg GE with 50 mg/kg ketoconazole oral, 0.5 h, −βgd): 14000 ng/mL
concentration at 1 h ([2]; 250 mg/kg GE with 50 mg/kg ketoconazole oral, 1 h, −βgd): 54.5 ± 58.3 ng/mL
concentration at 2 h ([2]; 250 mg/kg GE with 50 mg/kg ketoconazole oral, 2 h, −βgd): 27900 ng/mL
concentration at 3 h ([2]; 250 mg/kg GE with 50 mg/kg ketoconazole oral, 3 h, −βgd): 45.8 ± 48.2 ng/mL
concentration at 4 h ([2]; 250 mg/kg GE with 50 mg/kg ketoconazole oral, 4 h, −βgd): 6.52 ± 1.14 ng/mL
concentration at 6 h ([2]; 250 mg/kg GE with 50 mg/kg ketoconazole oral, 6 h, −βgd): 8.07 ± 5.96 ng/mL
concentration at 8 h ([2]; 250 mg/kg GE with 50 mg/kg ketoconazole oral, 8 h, −βgd): 3.71 ± 2.46 ng/mL
concentration at 12 h ([2]; 250 mg/kg GE with 50 mg/kg ketoconazole oral, 12 h, −βgd): 2.61 ± 1.41 ng/mL
SMILES: CCCCCCCCCC(O)CC(=O)CCc1ccc(O)c(OC)c1 (centres unmarked) [10G, 10-gingerol]
